These results are taken from patent US20070049564A1 (Wyeth, priority 2005, published 2007).

In one experiment the test system is E. coli #311. The experiment can be described thus: In vivo activity (oral, iv; ED50) against E. coli in mice. To be noted: Escherichia coli. An excerpt:
. […] Smith and E. Coli #311 in mammals.
Results of the tests (MIC, oral and IV) are list in Table 7.

A further experiment concerns E. coli. The experiment can be described thus: Range of MIC for E. coli strains. To be noted: Escherichia coli.
A further experiment relates to Staph. The experiment can be described thus: Range of MIC for Staph. strains, including MRSA. The note with it: Staphylococcus aureus.
A further experiment has as its system Staph. aureus Smith. The experiment can be described thus: In vivo activity (oral, iv; ED50) against Staph. aureus Smith in mice.
The mark [1] stands for this setting: single intravenous dose (SIV), read-out: ED50 E. coli #311 SIV.
Where [2] appears, read: single oral dose (SOD), read-out: ED50 E. coli #311 SOD.
[3] abbreviates: 20 h, read-out: Range of MIC, E. coli (Mouse Serum).
The mark [4] stands for this setting: read-out: Range of MIC, E. coli (Water).
Setting [5] is: MRSA, read-out: Range of MIC, Staph (Mouse Serum).
[6] abbreviates: MRSA, read-out: Range of MIC, Staph (Water).
Setting [7] is: Staphylococcus aureus, in Mus musculus, po, read-out: ED50 Staph Smith SOD.
The mark [8] stands for this setting: iv, read-out: ED50 Staph Smith SIV.

≈ marks a conversion by molar mass, not a printed value. Read-outs that look alike come from different tables or passages of the source.

Method for Staph. aureus Smith: Representative examples of compounds of Formula I were tested for the oral efficacy using S. aureus Smith in mice.

As a reminder, the ED50 is the dose at which the effect has come halfway, by size or by number of responders. In the case of `CN(C)c1cc(NC(=O)CN(C(=O)OCOC(=O)c2ccc(-c3ccccc3)cc2)C(C)(C)C)c(O)c2c1C[C@H]1C[C@H]3[C@H](N(C)C)C(O)=C(C(N)=O)C(=O)[C@@]3(O)C(O)=C1C2=O` [Example 71, ({[(2-{[(5aR,6aS,7S,10aS)-9-(aminocarbonyl)-4,7-bis(dimethylamino)-1,8,10a,11-tetrahydroxy-10,12-dioxo-5,5a,6,6a,7,10,10a,12-octahydrotetracen-2-yl]amino}-2-oxoethyl)(tert-butyl)amino]carbonyl}oxy)methyl 1,1′-biphenyl-4-carboxylate], the 50% effective dose (ED50) with E. coli #311 (setting [1]) was above 4 mg/kg; in the experiment on E. coli #311 (setting [2]), above 32 mg/kg; in the experiment with Staph. aureus Smith (setting [7]), above 32 mg/kg; in the experiment with Staph. aureus Smith (setting [8]), 1 mg/kg. Also, the MIC was 0.12 to 0.25 µg/mL (≈ 0.143 to 0.298 µM) in the experiment on E. coli (setting [3]), above 64 µg/mL with E. coli (setting [4]), 0.5 to 1 µg/mL (≈ 0.595 to 1.19 µM) with Staph. (setting [5]) and 32 to 64 µg/mL (≈ 38.1 to 76.2 µM) in the experiment on Staph. (setting [6]).
As to `CN(C)c1cc(NC(=O)CN(C(=O)OCOC(=O)C(c2ccccc2)c2ccccc2)C(C)(C)C)c(O)c2c1C[C@H]1C[C@H]3[C@H](N(C)C)C(O)=C(C(N)=O)C(=O)[C@@]3(O)C(O)=C1C2=O` [Example 74, ({[(2-{[(5aR,6aS,7S,10aS)-9-(aminocarbonyl)-4,7-bis(dimethylamino)-1,8,10a,11-tetrahydroxy-10,12-dioxo-5,5a,6,6a,7,10,10a,12-octahydrotetracen-2-yl]amino}-2-oxoethyl)(tert-butyl)amino]carbonyl}oxy)methyl diphenylacetate], the ED50 was above 4 mg/kg in the experiment with E. coli #311 (setting [1]), above 32 mg/kg in the experiment on E. coli #311 (setting [2]), above 32 mg/kg with Staph. aureus Smith (setting [7]) and 1.08 mg/kg in the experiment with Staph. aureus Smith (setting [8]). Besides, the MIC with E. coli (setting [3]) was 0.25 to 1 µg/mL (≈ 0.293 to 1.17 µM); in the experiment on E. coli (setting [4]), above 64 µg/mL; with Staph. (setting [5]), 0.5 to 4 µg/mL (≈ 0.586 to 4.68 µM).
Take `CC(C)Oc1ccc(C(=O)OCOC(=O)N(CC(=O)Nc2cc(N(C)C)c3c(c2O)C(=O)C2=C(O)[C@]4(O)C(=O)C(C(N)=O)=C(O)[C@@H](N(C)C)[C@@H]4C[C@@H]2C3)C(C)(C)C)cc1` [Example 96, ({[(2-{[(5aR,6aS,7S,10aS)-9-(aminocarbonyl)-4,7-bis(dimethylamino)-1,8,10a,11-tetrahydroxy-10,12-dioxo-5,5a,6,6a,7,10,10a,12-octahydrotetracen-2-yl]amino}-2-oxoethyl)(tert-butyl)amino]carbonyl}oxy)methyl 4-isopropoxybenzoate]: the ED50 is 2 to 4 mg/kg in the experiment on E. coli #311 (setting [1]), above 32 mg/kg in the experiment on E. coli #311 (setting [2]), 16 to 32 mg/kg with Staph. aureus Smith (setting [7]) and 1 to 2 mg/kg in the experiment on Staph. aureus Smith (setting [8]). The MIC in the experiment with E. coli (setting [3]) lay in the range of 0.25 to 1 µg/mL (≈ 0.304 to 1.22 µM); in the experiment with Staph. (setting [5]), 0.25 to 1 µg/mL (≈ 0.304 to 1.22 µM); in the experiment on Staph. (setting [6]), 4 to 16 µg/mL (≈ 4.87 to 19.5 µM).
In the case of `CCCCCCCOc1ccc(C(=O)OCOC(=O)N(CC(=O)Nc2cc(N(C)C)c3c(c2O)C(=O)C2=C(O)[C@]4(O)C(=O)C(C(N)=O)=C(O)[C@@H](N(C)C)[C@@H]4C[C@@H]2C3)C(C)(C)C)cc1` [Example 102, ({[(2-{[(5aR,6aS,7S,10aS)-9-(aminocarbonyl)-4,7-bis(dimethylamino)-1,8,10a,11-tetrahydroxy-10,12-dioxo-5,5a,6,6a,7,10,10a,12-octahydrotetracen-2-yl]amino}-2-oxoethyl)(tert-butyl)amino]carbonyl}oxy)methyl 4-(heptyloxy)benzoate], the median effective dose (ED50) is 2 to 4 mg/kg in the experiment on E. coli #311 (setting [1]), above 32 mg/kg in the experiment on E. coli #311 (setting [2]), 19.8 mg/kg with Staph. aureus Smith (setting [7]) and 1.59 mg/kg with Staph. aureus Smith (setting [8]). The MIC in the experiment on E. coli (setting [3]) was 0.5 to 1 µg/mL (≈ 0.569 to 1.14 µM); in the experiment on E. coli (setting [4]), above 64 µg/mL; with Staph. (setting [5]), 0.5 to 1 µg/mL (≈ 0.569 to 1.14 µM); with Staph. (read-out: Minimum inhibitory concentration (MIC), Staph (Human Serum)), above 64 µg/mL.
